Laboratory results from patent US20150197497A1, “SELECTIVE INHIBITORS OF HISTONE DEACETYLASE ISOFORM 6 AND METHODS THEREOF” (DANA-FARBER CANCER INSTITUTE, INC., priority 2011, published 2015).

Tests used:
acetylated histones = assay: High-content image analysis of induction of acetylated histones in A549 cells; settings: for EC50: Homo sapiens, A549, 8 h, read-out: EC50 for half-maximal induction of acetylated histones (AcHistone)
Procedure: (§1) Cells were treated with each test HDACi compound with an automated pin transfer instrument (Janus, Perkin Elmer) and incubated for 8 hours. […] Fixation solution was aspirated and 90 μL of washing solution (0.1% Triton X-100 in PBS) was added prior to 10 minute incubation at 4° C. Washing solution was aspirated and cells were incubated at 4° C. for about 1 hour in blocking solution (0.1% Triton X-100+2% BSA in PBS). Washing solution was aspirated, and cells were incubated for about 1 hour at 4° C. in primary antibody for acetylated-tubulin (Sigma T7451) and acetylated-histone (Cell Signaling #9441L) at a 1:1000 dilution in blocking solution. Primary antibody solution was aspirated, and cells were washed three times in 90 μL of washing solution. […] Secondary antibody and nuclear staining solution was aspirated and cells were washed three times in 90 μL of washing solution. After the third wash, 50 μL of PBS was added to each well. Image acquisition was done on a high content imaging microscope (ImageXpress Micro, Molecular Devices), and image analysis (MetaXpress, Molecular Devices) was performed to obtain average acetylated-tubulin and acetylated-histone signal per cell based on treatment. Replicate experimental data from incubations with inhibitor were normalized to DMSO controls.

HDAC6 = target: T1, HDAC6 (Homo sapiens, UniProt Q9UBN7); assay: In vitro HDAC enzyme inhibition assay, HDAC6; format: biochemical; settings: recombinant full-length HDAC6, substrate MAZ1600 9 μM
T1 construct: Recombinant, full-length HDAC protein (BPS Biosciences) was incubated with fluorophore conjugated substrate; purchased BPS Biosciences
T1 sequence (Q9UBN7 1-1215): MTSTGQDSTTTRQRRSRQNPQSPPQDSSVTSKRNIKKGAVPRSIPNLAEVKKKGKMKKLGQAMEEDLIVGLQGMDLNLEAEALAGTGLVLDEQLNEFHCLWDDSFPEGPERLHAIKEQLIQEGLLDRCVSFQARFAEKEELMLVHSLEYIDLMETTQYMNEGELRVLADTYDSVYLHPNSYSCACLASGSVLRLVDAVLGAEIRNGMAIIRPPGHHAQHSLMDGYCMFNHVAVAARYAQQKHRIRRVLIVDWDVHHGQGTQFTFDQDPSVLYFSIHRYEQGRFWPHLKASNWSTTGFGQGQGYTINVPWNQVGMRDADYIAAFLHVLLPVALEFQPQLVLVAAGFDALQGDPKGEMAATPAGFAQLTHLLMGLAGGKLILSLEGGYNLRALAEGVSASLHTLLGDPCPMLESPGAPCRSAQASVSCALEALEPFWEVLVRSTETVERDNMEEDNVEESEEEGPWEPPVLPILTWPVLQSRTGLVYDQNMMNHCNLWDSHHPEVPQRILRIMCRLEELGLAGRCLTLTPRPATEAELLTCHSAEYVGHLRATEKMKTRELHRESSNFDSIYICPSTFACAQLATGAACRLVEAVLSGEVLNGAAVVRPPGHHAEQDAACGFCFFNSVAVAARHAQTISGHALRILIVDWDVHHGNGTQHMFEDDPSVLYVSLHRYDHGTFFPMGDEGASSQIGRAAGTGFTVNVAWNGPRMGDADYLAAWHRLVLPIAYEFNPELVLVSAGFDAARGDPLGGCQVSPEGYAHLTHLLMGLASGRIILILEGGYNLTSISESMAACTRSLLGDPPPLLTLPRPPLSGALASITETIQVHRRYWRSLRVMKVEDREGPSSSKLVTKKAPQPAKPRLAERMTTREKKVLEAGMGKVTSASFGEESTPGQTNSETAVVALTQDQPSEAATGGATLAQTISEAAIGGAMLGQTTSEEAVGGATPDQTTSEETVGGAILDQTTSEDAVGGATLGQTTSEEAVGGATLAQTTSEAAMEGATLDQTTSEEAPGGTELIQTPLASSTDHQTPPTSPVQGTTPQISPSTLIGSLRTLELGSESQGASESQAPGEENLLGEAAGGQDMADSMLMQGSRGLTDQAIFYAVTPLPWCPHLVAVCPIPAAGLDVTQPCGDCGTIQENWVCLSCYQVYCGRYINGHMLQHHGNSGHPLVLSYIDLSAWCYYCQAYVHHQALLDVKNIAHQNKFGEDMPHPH
Procedure: In vitro Histone Deacetylase enzyme assays were performed using Class I (isoforms: HDAC1, HDAC2, HDAC3 and HDAC8), class IIa (isoforms: HDAC4, HDAC5, HDAC7 and HDAC9) and class IIb (isoform HDAC6).
HDAC activities were determined in vitro with an optimized homogenous assay performed in a 384-well plate. Recombinant, full-length HDAC protein (BPS Biosciences) was incubated with fluorophore conjugated substrate, MAZ1600 and MAZ1675, at Km=[S]. […] Reactions were performed in assay buffer (50 mM HEPES, 100 mM KCl, 0.001% Tween-20, 0.05% BSA, 200 μM tris(2-carboxyethyl)phosphine (TCEP), pH 7.4) and followed for fluorogenic release of 7-amino-4-methylcoumarin from substrate upon deacetylase and trypsin enzymatic activity. Fluorescence measurements were obtained every five minutes using a multilabel plate reader and plate-stacker (Envision; Perkin-Elmer). Each plate was analyzed by plate repeat, and the first derivative within the linear range was imported into analytical software (Spotfire DecisionSite and GraphPad Prism). Replicate experimental data from incubations with inhibitor were normalized to controls.

acetylated tubulin = assay: High-content image analysis of induction of acetylated tubulin in A549 cells
Procedure: as §1

Row | EC50 (acetylated histones) | IC50 (HDAC6) | EC50 (acetylated tubulin; Homo sapiens, A549, 8 h, read-out: EC50 for half-maximal induction of acetylated tubulin (AcTubulin)) | Compound | AcHistone/AcTubulin in cell selectivity toward HDAC6 (acetylated tubulin; ratio of EC50 acetylated histone to EC50 acetylated tubulin, A549 cells) | levels of acetylated histone, dose response (in words) (acetylated histones; A549 cells, FIG. 11) | levels of acetylated tubulin, dose response (in words) (acetylated tubulin; A549 cells, FIG. 11)
1 | 2520 nM | 1470 nM | 124 nM | Cc1ccc2c(c1)nnn2Cc1ccc(C(=O)NO)cc1 [C2, N-hydroxy-4-((5-methyl-1H-benzo[d][1,2,3]triazol-1-yl)methyl)benzamide] | 20.3 | – | –
2 | 143 nM | – | – | O=C(CCCCCCC(=O)Nc1ccccc1)NO [SAHA, suberoylanilide hydroxamic acid, reference compound] | – | dose-dependent increase | dose-dependent increase
